Results as given in patent US8080377B2, “Method for confirming the exposure on chrysene” (Korea Institute of Science and Technology, priority 2008, dated 2011).

Experiments:
[1] = Cytotoxicity assay (MTT assay), chrysene treated 48 hours; format: cell-based, human; settings: human, HepG2 cells; HepG2, MTT, 48 hours; read-out: IC20 (concentration exhibiting 80% cell survival rate)
Experimental: (§1) The human hepatoma cell line HepG2 (Korean Cell Line Bank) was cultured in DMEM (Gibco-BRL, USA) supplemented with 10% FBS in 100 mm dish until it grew 80%. The present inventors selected chrysene (Sigma-Aldrich, USA) among polycyclic aromatic hydrocarbons known to have carcinogenicity, based on the previous studies and reports. Chrysene was dissolved in DMSO. The concentration of vehicle was up to 0.1% in every experiment.
(§2) MTT assay with the HepG2 cell line was performed according to the method of Mossman et al. (J. Immunol. Methods, 65: 55-63, 1983). The cells were inoculated in a 24-well plate containing DMEM at the concentration of 4×10^5 cells/well, to which chrysene dissolved in DMSO was treated. 48 hours later, MTT (3-[4,5-dimethylthiazol-2-yl]-2,5-diphenyltetra zolium bromide) was added at the concentration of 5 mg/ml, followed by culture at 37° C. for 3 hours. Then, medium was eliminated and generated formazan crystal was dissolved in 500 μl of DMSO. The solution was aliquoted in a 96 well-plate and OD540 was measured. Cytotoxicity in the HepG2 cell line caused by chrysene was investigated. As a result, IC20 was 34.97 µM (see FIG. 1) and thus the concentration of chrysene for the further experiment was determined as the above.

[2] = test system: HepG2 cell line; assay: as above; format: cell-based, human; settings: HepG2
Experimental: as §1, §2

[3] = test system: salmonella TA110 and TA98 strains; settings: even under normal metabolic activity of the liver (rats); cited from earlier work
[4] = animal tests; cited from earlier work

c1ccc2c(c1)ccc1c3ccccc3ccc21 [chrysene]
IC20 at 48 h [1]: 35 µM | cytotoxicity in the human hepatoma cell line [2]: demonstrated cytotoxicity | mutagenicity in Ames tests [3]: showed mutagenicity | absorption rate through skin [4]: very slow | absorption via oral pathway [4]: absorbed
